# Experimental data taken from ChEMBL document CHEMBL1201862, “PubChem BioAssay data set” (2004).
#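 All cell lines were grown in 96-well plates and treated with compound for 48 hours. GI50 is the concentration that inhibits growth by half.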 Calls of active or inactive are those of the source. Cut-off read from the data, not from the text of the source: active = GI50 up to about 1.1 µM and inactive = higher.
# Columns and labels:
# Assay in all cases: DTP human tumour cell line panel, 48 h
# [1] = system: UACC-257
# [2] = system: U-251
# [3] = system: DU-145
# [4] = system: OVCAR-4
# [5] = system: IGROV-1
# [6] = system: 786-0
# [7] = system: SNB-75
# [8] = system: K562
# [9] = system: MDA-MB-435
# [10] = system: COLO 205
# [11] = system: HCC 2998
# [12] = system: T47D
# [13] = system: SN12C
# [14] = system: ACHN
# [15] = system: CCRF-CEM
# [16] = system: MDA-MB-231
# [17] = system: OVCAR-5
# [18] = system: A498
# [19] = system: UO-31
SMILES,GI50 [1],GI50 [2],GI50 [3],GI50 [4],GI50 [5],GI50 [6],GI50 [7],GI50 [8],GI50 [9],GI50 [10],GI50 [11],GI50 [12],GI50 [13],GI50 [14],GI50 [15],GI50 [16],GI50 [17],GI50 [18],GI50 [19]
COC(=O)[C@@]12CC3CN(Cc4c1[nH]c1ccccc41)C2CC3=O,> 100 µM (inactive),> 100 µM (inactive),> 100 µM (inactive),> 100 µM (inactive),> 100 µM (inactive),> 100 µM (inactive),74.8 µM (inactive),> 100 µM (inactive),> 100 µM (inactive),> 100 µM (inactive),> 100 µM (inactive),> 100 µM (inactive),> 100 µM (inactive),> 100 µM (inactive),> 100 µM (inactive),> 100 µM (inactive),> 100 µM (inactive),,
CCOc1ccc(-n2nnc3c(N)nc(N)nc32)cc1,> 100 µM (inactive),> 100 µM (inactive),> 100 µM (inactive),> 100 µM (inactive),> 100 µM (inactive),> 100 µM (inactive),> 100 µM (inactive),> 100 µM (inactive),> 100 µM (inactive),> 100 µM (inactive),,> 100 µM (inactive),> 100 µM (inactive),> 100 µM (inactive),> 100 µM (inactive),> 100 µM (inactive),> 100 µM (inactive),> 100 µM (inactive),
CC1CC[C@@]2(OC1)OC1C[C@H]3[C@@H]4C/C(=N\N(C)C)[C@@]5(O)CC(O)CC[C@]5(C)[C@H]4CC[C@]3(C)C1[C@@H]2C (stereo partly drawn),67.5 µM (inactive),37.2 µM (inactive),> 100 µM (inactive),74.6 µM (inactive),89.1 µM (inactive),40.6 µM (inactive),,38.7 µM (inactive),29.8 µM (inactive),43.9 µM (inactive),68.5 µM (inactive),31.5 µM (inactive),43.1 µM (inactive),73.3 µM (inactive),31.3 µM (inactive),52.1 µM (inactive),43.5 µM (inactive),34.7 µM (inactive),55.5 µM (inactive)
O=C(N/N=C/c1ccc([N+](=O)[O-])cc1)c1cccc2nc3ccccc3nc12,> 100 µM (inactive),41.5 µM (inactive),65 µM (inactive),> 100 µM (inactive),> 100 µM (inactive),> 100 µM (inactive),> 100 µM (inactive),> 70.3 µM (inactive),> 100 µM (inactive),2.65 µM (inactive),,> 100 µM (inactive),> 100 µM (inactive),> 38.5 µM (inactive),> 92.5 µM (inactive),> 70.3 µM (inactive),> 86.1 µM (inactive),> 100 µM (inactive),> 71.4 µM (inactive)
C1COCCOP2(N3CC3)=NP(N3CC3)(=NP(N3CC3)(N3CC3)=N2)OCCOCCO1 (stereo not drawn),> 100 µM (inactive),> 100 µM (inactive),37.4 µM (inactive),> 100 µM (inactive),> 100 µM (inactive),> 100 µM (inactive),> 100 µM (inactive),> 100 µM (inactive),> 100 µM (inactive),> 100 µM (inactive),,70.3 µM (inactive),> 100 µM (inactive),> 100 µM (inactive),77.3 µM (inactive),> 100 µM (inactive),> 100 µM (inactive),> 100 µM (inactive),> 100 µM (inactive)
O=S(=O)(O)c1ccc2c(/N=N\c3ccc(F)cc3)c(O)c(S(=O)(=O)O)cc2c1,> 100 µM (inactive),> 100 µM (inactive),> 100 µM (inactive),> 100 µM (inactive),> 100 µM (inactive),> 100 µM (inactive),> 100 µM (inactive),> 100 µM (inactive),> 100 µM (inactive),> 100 µM (inactive),,> 100 µM (inactive),> 100 µM (inactive),> 100 µM (inactive),> 100 µM (inactive),> 100 µM (inactive),> 100 µM (inactive),> 100 µM (inactive),> 100 µM (inactive)
O=C(NN=C1NCCCN1)c1ccco1,> 100 µM (inactive),> 100 µM (inactive),> 100 µM (inactive),> 100 µM (inactive),> 100 µM (inactive),> 100 µM (inactive),> 100 µM (inactive),> 100 µM (inactive),> 100 µM (inactive),> 100 µM (inactive),> 100 µM (inactive),> 100 µM (inactive),> 100 µM (inactive),> 100 µM (inactive),> 100 µM (inactive),> 100 µM (inactive),> 100 µM (inactive),,> 100 µM (inactive)
COc1ccc(OC)c([N+](=O)[O-])c1-c1nc2sccn2c1/C=N/N=C(N)N,69.5 µM (inactive),41.1 µM (inactive),> 100 µM (inactive),,91.6 µM (inactive),> 100 µM (inactive),,43.6 µM (inactive),52.7 µM (inactive),29 µM (inactive),30.4 µM (inactive),66.1 µM (inactive),> 100 µM (inactive),> 100 µM (inactive),34.2 µM (inactive),48.6 µM (inactive),> 100 µM (inactive),> 100 µM (inactive),> 100 µM (inactive)
O=C1C(=Cc2ccc(O)cc2)N=C(c2ccccc2)N1n1c(-c2ccccc2)nc2ccccc2c1=O,> 100 µM (inactive),,> 100 µM (inactive),,> 100 µM (inactive),> 100 µM (inactive),> 100 µM (inactive),> 10 µM (inactive),> 100 µM (inactive),> 100 µM (inactive),> 100 µM (inactive),49.8 µM (inactive),> 10 µM (inactive),,32 µM (inactive),76.9 µM (inactive),,,> 100 µM (inactive)
C[N+](CCCl)(CCCl)Cc1cccc2cccc([N+](=O)[O-])c12,37.2 µM (inactive),> 100 µM (inactive),> 100 µM (inactive),57.7 µM (inactive),56.4 µM (inactive),> 100 µM (inactive),> 100 µM (inactive),> 100 µM (inactive),> 100 µM (inactive),25.8 µM (inactive),,42.7 µM (inactive),45.5 µM (inactive),44.5 µM (inactive),73.6 µM (inactive),> 100 µM (inactive),> 100 µM (inactive),> 100 µM (inactive),> 100 µM (inactive)
Cc1nn(C(=O)Cc2ccccc2)c2c1C(c1ccc(O)cc1)SC(=N)N2 (stereo not drawn),> 100 µM (inactive),,> 100 µM (inactive),,> 100 µM (inactive),> 100 µM (inactive),44.6 µM (inactive),> 100 µM (inactive),> 100 µM (inactive),> 100 µM (inactive),> 100 µM (inactive),> 100 µM (inactive),> 100 µM (inactive),> 100 µM (inactive),> 100 µM (inactive),> 100 µM (inactive),,> 100 µM (inactive),> 100 µM (inactive)
O=c1oc(-c2ccccc2)c(-c2ccccc2)n1-c1ccc(Br)cc1,86.9 µM (inactive),24.2 µM (inactive),21 µM (inactive),27 µM (inactive),29.6 µM (inactive),32.4 µM (inactive),12 µM (inactive),,> 100 µM (inactive),> 100 µM (inactive),,29.4 µM (inactive),71.3 µM (inactive),> 100 µM (inactive),93.8 µM (inactive),27.7 µM (inactive),> 100 µM (inactive),26.2 µM (inactive),> 100 µM (inactive)
CC(C)(C)OC(=O)Nc1cc(-c2ccccc2)co1,> 100 µM (inactive),54.6 µM (inactive),> 100 µM (inactive),> 100 µM (inactive),87.5 µM (inactive),> 100 µM (inactive),,67 µM (inactive),94 µM (inactive),> 100 µM (inactive),> 100 µM (inactive),38.4 µM (inactive),95.9 µM (inactive),> 100 µM (inactive),51.8 µM (inactive),68.7 µM (inactive),> 100 µM (inactive),> 100 µM (inactive),> 100 µM (inactive)
O=C1NCN(c2ccccc2)C12CCN(CCc1ccc3[nH]c(=S)[nH]c3c1)CC2,0.075 µM (active),29.4 µM (inactive),39.7 µM (inactive),> 100 µM (inactive),37.6 µM (inactive),33.5 µM (inactive),,,17.3 µM (inactive),16.3 µM (inactive),,16.4 µM (inactive),36.1 µM (inactive),> 100 µM (inactive),3.15 µM (inactive),19.5 µM (inactive),> 100 µM (inactive),53.6 µM (inactive),
CCOC(=O)c1cc(C2CCN(CC(C)CC)C2=S)c(C(=O)/C=C(/C)N)[nH]1 (stereo not drawn),> 50 µM (inactive),> 50 µM (inactive),> 50 µM (inactive),,> 50 µM (inactive),> 50 µM (inactive),> 50 µM (inactive),> 50 µM (inactive),> 50 µM (inactive),> 50 µM (inactive),,> 50 µM (inactive),> 50 µM (inactive),> 50 µM (inactive),> 50 µM (inactive),> 50 µM (inactive),> 50 µM (inactive),> 50 µM (inactive),> 50 µM (inactive)
COC(=O)C[C@@H]1C(C)(C)[C@@H]2O[C@@]34C[C@@H]2C(=O)[C@]1(C)[C@H]3CC[C@@]1(C)[C@H](c2ccoc2)OC(=O)C[C@]14O,> 100 µM (inactive),> 100 µM (inactive),> 100 µM (inactive),> 100 µM (inactive),> 100 µM (inactive),> 100 µM (inactive),> 100 µM (inactive),> 100 µM (inactive),> 100 µM (inactive),> 100 µM (inactive),,> 100 µM (inactive),> 100 µM (inactive),> 100 µM (inactive),> 100 µM (inactive),> 100 µM (inactive),> 100 µM (inactive),> 100 µM (inactive),
